Test results reported in article PMC10418599, “Quercetins, Chlorogenic Acids and Their Colon Metabolites Inhibit Colon Cancer Cell Proliferation at Physiologically Relevant Concentrations” (International Journal of Molecular Sciences, 2023).
One block for each compound: values may come before it.

Key:
[1] = test system: SW480 cell line; assay: Cell metabolism of phenolic compounds (UHPLC-HR-MS analysis of cell media); type: in vitro ADME, Human; details: for Concentration of substrate in cell medium: initial 50 μmol/L
Method: To analyze the metabolism of phenolic compounds by Caco-2 and SW480 cells, the cell culture media were withdrawn after 0, 24, 48 and 72 h of incubation. Phenolic compounds were extracted from the culture media by following the procedure reported in Sala et al.. Briefly, 100 μL of cold methanol was mixed with 100 μL of cell media and vortexed for 1 min. The mixture was then centrifuged at 10,000× g (4 °C, 5 min) and the supernatant was injected, after appropriate dilution, in an ultra-high-performance liquid chromatography high-resolution mass spectrometry system (UHPLC-HR-MS).
The HR-MS system consisted of a UHPLC Ultimate 3000 separation module, equipped with a C18 column (Acquity UPLC HSS C18 reversed phase, 2.1 × 100 mm, 1.8 μm particle size, Waters, Milan, Italy) and coupled with a Q Exactive Hybrid Quadrupole-Orbitrap Mass Spectrometer (Thermo Scientific, San Jose, CA, USA). Mobile phases consisted of a mixture of water containing formic acid (0.1%) (mobile phase A) and acetonitrile containing formic acid (0.1%) (mobile phase B). The gradient began at 1% B, reaching 40% B over 20 min. To wash the column, the mobile phase B concentration was raised to 99% over 6 min and kept at 99% for 3 min before returning to the initial conditions. The MS and MS/MS conditions are fully described in Martini et al..
Quantification was carried out by building external calibration curves with the available standard compounds.

[2] = test system: SW480 cell line; assay: Anti-proliferative assay (MTS cell proliferation assay); type: cell-based, Human; details: for Percentage of inhibition of SW480 growth: 100 μmol/L, 72 h; for IC50: maximum tested concentration 200 μmol/L
Method: (§1) Human colon cancer Caco-2 and SW480 cell lines were cultured and grown as previously reported. […] Incubation was carried out for 24, 48 and 72 h. Data were compared with a control solution containing 0.5% DMSO in cell medium and representing 100% proliferation. In addition, six different mixes were prepared to simulate the simultaneous presence of parent phenolic compounds and metabolites by mimicking the possible human inter-individual variability in colon metabolism of phenolic compounds. Two sets of mixes were prepared to consider the colon metabolism of quercetins and chlorogenic acids. […] For each set of mixtures (QUE and CGA mixtures), three different mixes were formulated. One set of mixes mimicked the low-producers metabotype and contained 90% parent compounds and 10% metabolites (mixes QUE-LP and CGA-LP). Another set of mixes was prepared to simulate the high-producers metabotype and contained 10% parent compounds and 90% metabolites (mixes QUE-HP and CGA-HP). Finally, a third set of mixes was prepared with equimolar amounts of all the compounds (mixes QUE-EQ and CGA-EQ). […] Cell proliferation was assessed by the MTS assay as previously described. […] The IC50 values were calculated through non-linear regression analysis by plotting the base-10 logarithm of the phenolic compound concentration vs. the percentage of inhibition.

[3] = test system: Caco-2 cell line; assay: as above; type: cell-based, Human; details: for IC50: maximum tested concentration 200 μmol/L
Method: as §1

[4] = after raspberry supplementation; ref 49 (Gill et al.); cited from earlier work
[5] = SW480, 24 h, substrate 3-O-Caffeoylquinic acid trans 50 μmol/L
[6] = SW480, 24 h, substrate 5-O-Caffeoylquinic acid trans 50 μmol/L
[7] = SW480, 48 h, substrate 3-O-Caffeoylquinic acid trans 50 μmol/L
[8] = SW480, 48 h, substrate 5-O-Caffeoylquinic acid trans 50 μmol/L
[9] = SW480, 72 h, substrate 3-O-Caffeoylquinic acid trans 50 μmol/L
[10] = SW480, 72 h, substrate 5-O-Caffeoylquinic acid trans 50 μmol/L
[11] = SW480, 48 h, substrate Quercetin-3-O-glucoside-4′-O-glucoside 50 μmol/L
[12] = SW480, 72 h, substrate Quercetin-3-O-glucoside-4′-O-glucoside 50 μmol/L

SMILES: O=C(/C=C/c1ccc(O)c(O)c1)OC1CC(O)(C(=O)O)CC(OC(=O)/C=C/c2ccc(O)c(O)c2)C1O (stereo not shown) [3,5-di-O-Caffeoylquinic acid, 3,5-di-O-caffeoylquinic acid]
Concentration of substrate in cell medium ([1]; SW480, 24 h): 7130 ± 130 nM
Concentration of substrate in cell medium ([1]; SW480, 48 h): 5410 ± 70 nM
Concentration of substrate in cell medium ([1]; SW480, 72 h): 6170 ± 50 nM
Percentage of inhibition of SW480 growth [2]: 10.9%
IC50 ([2]; SW480, 48 h of incubation): > 200 µM
IC50 ([2]; SW480, 72 h of incubation): > 200 µM
Inhibition of Caco-2 growth ([3]; 100 μmol/L, 72 h): almost complete inhibition
IC50 ([3]; Caco-2, 24 h of incubation): > 200 µM
IC50 ([3]; Caco-2, 48 h of incubation): 27.5 ± 1 µM
IC50 ([3]; Caco-2, 72 h of incubation): 8.8 ± 0.2 µM

SMILES: O=C(O)Cc1ccc(O)c(O)c1 [3-(3′,4′-Dihydroxyphenyl)acetic acid, 3-(3′,4′-dihydroxyphenyl)acetic acid]
Concentration of substrate in cell medium ([1]; SW480, 24 h): 21620 ± 480 nM
Concentration of substrate in cell medium ([1]; SW480, 48 h): 15840 ± 90 nM
Concentration of substrate in cell medium ([1]; SW480, 72 h): 10300 ± 360 nM
Maximum value in human fecal water [4]: 442 µmol/L
IC50 ([2]; Homo sapiens, SW480, 48 h of incubation): > 200 µM
IC50 ([2]; Homo sapiens, SW480, 72 h of incubation): 92.2 ± 6.9 µM
IC50 ([3]; Homo sapiens, Caco-2, 24 h of incubation): 79.5 ± 1.4 µM
IC50 ([3]; Homo sapiens, Caco-2, 48 h of incubation): 14.7 ± 0.8 µM
IC50 ([3]; Homo sapiens, Caco-2, 72 h of incubation): 3 ± 0.1 µM

SMILES: O=C(O)/C=C/c1ccc(O)c(O)c1 [Caffeic acid]
Concentration of newly formed metabolite [1, 5]: 440 ± 10 nM
Concentration of newly formed metabolite [1, 7]: 430 ± 10 nM
Concentration of newly formed metabolite [1, 8]: 80 ± 0 nM
Concentration of newly formed metabolite ([1]; SW480, 72 h, substrate 3,5-di-O-Caffeoylquinic acid 50 μmol/L): 1070 ± 10 nM
Concentration of newly formed metabolite [1, 9]: 570 ± 10 nM
Concentration of newly formed metabolite [1, 10]: 90 ± 10 nM

SMILES: COc1cc(/C=C/C(=O)O)ccc1O [Ferulic acid]
Concentration of newly formed metabolite [1, 6]: 60 ± 20 nM
Concentration of newly formed metabolite [1, 8]: 330 ± 10 nM
Concentration of newly formed metabolite [1, 10]: 370 ± 10 nM

SMILES: COc1cc(-c2oc3cc(O)cc(O)c3c(=O)c2O)ccc1O [Isorhamnetin]
Concentration of newly formed metabolite ([1]; SW480, 24 h, substrate Quercetin 50 μmol/L): 1610 ± 10 nM
Concentration of newly formed metabolite ([1]; SW480, 48 h, substrate Quercetin 50 μmol/L): 3460 ± 80 nM
Concentration of newly formed metabolite [1, 11]: 10 ± 0 nM
Concentration of newly formed metabolite ([1]; SW480, 48 h, substrate Quercetin-4′-O-glucoside 50 μmol/L): 790 ± 30 nM
Concentration of newly formed metabolite ([1]; SW480, 72 h, substrate Quercetin 50 μmol/L): 3760 ± 110 nM
Concentration of newly formed metabolite [1, 12]: 10 ± 0 nM
Concentration of newly formed metabolite ([1]; SW480, 72 h, substrate Quercetin-4′-O-glucoside 50 μmol/L): 1030 ± 40 nM

SMILES: O=c1c(O[C@@H]2O[C@H](CO)[C@@H](O)[C@H](O)[C@H]2O)c(-c2ccc(O[C@@H]3O[C@H](CO)[C@@H](O)[C@H](O)[C@H]3O)c(O)c2)oc2cc(O)cc(O)c12 [Quercetin-3-O-glucoside-4′-O-glucoside, quercetin-3-O-glucoside-4′-O-glucoside]
IC50 ([2]; SW480, 48 h of incubation): > 200 µM
IC50 ([2]; SW480, 72 h of incubation): ~200 µM

SMILES: O=c1c(O[C@@H]2O[C@H](CO)[C@@H](O)[C@H](O)[C@H]2O)c(-c2ccc(O)c(O)c2)oc2cc(O)cc(O)c12 [Quercetin-3-O-glucoside]
Concentration of newly formed metabolite ([1]; SW480, 24 h, substrate Quercetin-3-O-glucoside-4′-O-glucoside 50 μmol/L): 3350 ± 10 nM
Concentration of newly formed metabolite [1, 11]: 8940 ± 30 nM
Concentration of newly formed metabolite [1, 12]: 9340 ± 50 nM

Further lines, with some results ahead:

Concentration of substrate in cell medium ([1]; SW480, 24 h, listed as 3-O-Caffeoylquinic acid trans): 23340 ± 70 nM
Concentration of newly formed metabolite ([1]; SW480, 24 h, substrate 3,5-di-O-Caffeoylquinic acid 50 μmol/L, listed as 3-O-Caffeoylquinic acid trans): 90 ± 10 nM
Concentration of substrate in cell medium ([1]; SW480, 48 h, listed as 3-O-Caffeoylquinic acid trans): 19540 ± 70 nM
Concentration of newly formed metabolite ([1]; SW480, 48 h, substrate 3,5-di-O-Caffeoylquinic acid 50 μmol/L, listed as 3-O-Caffeoylquinic acid trans): 130 ± 10 nM
Concentration of newly formed metabolite ([1]; SW480, 48 h, substrate 5-O-Caffeoylquinic acid trans 50 μmol/L, listed as 3-O-Caffeoylquinic acid trans): 5140 ± 70 nM
Concentration of substrate in cell medium ([1]; SW480, 72 h, listed as 3-O-Caffeoylquinic acid trans): 19830 ± 50 nM
Concentration of newly formed metabolite ([1]; SW480, 72 h, substrate 5-O-Caffeoylquinic acid trans 50 μmol/L, listed as 3-O-Caffeoylquinic acid trans): 5550 ± 90 nM
IC50 ([2]; SW480, 48 h of incubation): > 200 µM
IC50 ([2]; SW480, 72 h of incubation): > 200 µM
SMILES: O=C(/C=C/c1ccc(O)c(O)c1)O[C@@H]1C[C@](O)(C(=O)O)C[C@@H](O)[C@H]1O [3-O-Caffeoylquinic acid, 3-O-caffeoylquinic acid]
Percentage of inhibition of SW480 growth [2]: 29.6%

Concentration of substrate in cell medium ([1]; SW480, 24 h, listed as 5-O-Caffeoylquinic acid trans): 16760 ± 10 nM
Concentration of newly formed metabolite ([1]; SW480, 24 h, substrate 3,5-di-O-Caffeoylquinic acid 50 μmol/L, listed as 5-O-Caffeoylquinic acid trans): 80 ± 10 nM
Concentration of newly formed metabolite ([1]; SW480, 24 h, substrate 3-O-Caffeoylquinic acid trans 50 μmol/L, listed as 5-O-Caffeoylquinic acid trans): 4950 ± 40 nM
Concentration of substrate in cell medium ([1]; SW480, 48 h, listed as 5-O-Caffeoylquinic acid trans): 17520 ± 80 nM
Concentration of newly formed metabolite ([1]; SW480, 48 h, substrate 3-O-Caffeoylquinic acid trans 50 μmol/L, listed as 5-O-Caffeoylquinic acid trans): 7370 ± 70 nM
Concentration of substrate in cell medium ([1]; SW480, 72 h, listed as 5-O-Caffeoylquinic acid trans): 13960 ± 30 nM
Concentration of newly formed metabolite ([1]; SW480, 72 h, substrate 3,5-di-O-Caffeoylquinic acid 50 μmol/L, listed as 5-O-Caffeoylquinic acid trans): 290 ± 10 nM
Concentration of newly formed metabolite ([1]; SW480, 72 h, substrate 3-O-Caffeoylquinic acid trans 50 μmol/L, listed as 5-O-Caffeoylquinic acid trans): 11320 ± 430 nM
IC50 ([2]; SW480, 48 h of incubation): > 200 µM
IC50 ([2]; SW480, 72 h of incubation): > 200 µM
SMILES: O=C(/C=C/c1ccc(O)c(O)c1)O[C@@H]1C[C@](O)(C(=O)O)C[C@@H](O)[C@H]1O [5-O-Caffeoylquinic acid, 5-O-caffeoylquinic acid]
Percentage of inhibition of SW480 growth [2]: 14.7%

Concentration of newly formed metabolite [1, 5]: 30 ± 0 nM
Concentration of newly formed metabolite [1, 6]: 10 ± 0 nM
Concentration of newly formed metabolite [1, 7]: 30 ± 0 nM
Concentration of newly formed metabolite [1, 8]: 30 ± 0 nM
Concentration of newly formed metabolite [1, 9]: 50 ± 0 nM
Concentration of newly formed metabolite [1, 10]: 30 ± 0 nM
SMILES: COc1cc(/C=C/C(=O)O[C@@H]2C[C@@](O)(C(=O)O)C[C@@H](O)[C@@H]2O)ccc1O [5-O-Feruloylquinic acid]
